Measured values reported in patent US20230234920A1, “Azirine Containing Compounds as Anti-Angiogenesis Agents and a Process for the Preparation Thereof” (COUNCIL OF SCIENTIFIC & INDUSTRIAL RESEARCH, priority 2020, published 2023).

What was measured:
ECs = test: Post tubule formation assay (disruption of preformed tubules); format: cell-based, human; settings: treatment of already formed tubule
Description: FIG. 3 represents effect of Compound 1 on post tubule formation by ECs. (A) ECs were incubated with indicated different concentrations of compound 1 along with VEGF (50 ng/mL) and sunitinib (50 nM) after 6 h of treatment to the already formed tubule. Post treatment photographs were taken at using an inverted microscope at 10×magnification.

HUVECs = test: Wound healing (scratch) migration assay; format: cell-based, human; settings: for wound closure: 12 h
Description: FIG. 4 represents In vitro wound closure assay showing effect of Compound 1 migration of HUVECs. (A) ECs were incubated with 2.5% FBS in the presence of VEGF, sunitinib and Compound 1 at the indicated concentrations for 24 h after linear scratched wounds were created in the confluent cells. Post treatment photographs were taken at 0 hr, 12 h and 24 h using an inverted microscope at 10×magnification. (B) Data were quantified using Image J software and graphs were plotted by calculating the % migration of that vehicle treated cells (control). Compound 1 inhibits the wound closure by ECs in a dose dependent manner. The values represent the mean±SEM from (n=3) independent experiments with significant difference compared from control at *p<0.05.
As per previous reports, some anti-angiogenic compounds also show anti-migratory effect by modulating the expression of proteins responsible for blood vessels formation. A Scratch was made to the confluent endothelial cells containing VEGF (50 ng/mL) and sunitinib (50 nM) as a positive and negative control respectively and Compound 1 at 250 nM and 125 nM as a test compound. […] This might contribute to its potent anti-angiogenic effect.
Endothelial cells were grown inside 6-well plate at a confluency rate of 90%. And then with the help of 200 μL tip a straight line scratch was made in the middle of the grown ECs. After giving a gentle wash with 1×PBS, control group received vehicle in 2.5% FBS media. VEGF at 50 ng/mL as a positive control and sunitinib at 50 nM concentration was used as a negative control. Compound 1 at a dose concentration of 250 nM and 125 nM were used onto the wounded cells to observe its anti-migratory effect. After 0 h, 12 h and 24 h of post treatment the wound closure area was observed and micrographed using an inverted microscope (Olympus, Centre Valley, Pa., USA) and were analysed by Image J software. Control well at 100% was used to express inhibition percentage and the assay was performed for three-five times independently.

Src-kinase = test: Immunoblotting of treated HUVECs, Src-kinase; format: cell-based, human; settings: 250 nM, 6 h
Description: (§1) (A) Serum-starved HUVECs were treated with control (0.1% DMSO), sunitinib and Compound 1 at a given concentrations and then incubated for 6 h. The expression level of phospho-VEGFR2 and GAPDH (housekeeping protein) was analyzed by immunoblotting. (B) Blots were quantified with Image-J software and the bar graphs represent the relative density of phospho-VEGFR2 normalized with GAPDH and the data are represented as mean±SEM with significant difference compared with control at *p<0.05. (D) Protein angiogenesis array showing up-regulation of anti-angiogenic protein and down-regulation of pro-angiogenic proteins on endothelial cell treated with Compound 1 at 260 nM.
Whole cell lysates of endothelial cells at 6 h of treatment with Compound 1 (250 nM) and sunitinib (50 nM) were prepared using the RIPA-lysis buffer. Proteins were fractionated and resolved on 8% SDS-PAGE gels and transferred onto PVDF membranes (Millipore). After incubation in blocking buffer (5% BSA in 1×TBST) for 1 h the membranes were incubated with primary antibodies specific for p-Akt and p-Src. GAPDH was used as housekeeping and loading control. The blots were then incubated with specific HRP-conjugated secondary antibodies and bands were visualized using ECL (Millipore) on Image Quant (LAS4010) chemiluminescence detection system. The band intensities were quantified using My Image Analysis software.

endothelial cell = test: Protein angiogenesis array; format: cell-based; settings: 260 nM
Description: as §1

Endothelin-1 receptor = test: Endothelin-1 induced contraction of isolated artery rings; set-up: species or system mice; settings: for % contraction of aortic ring: ET-1 at 100 nM
Source text: FIG. 15 represents effect of Compound 1 on endothelin-1 concentration-response curves. (A) Concentration-response curve of endothelin-1 in isolated carotid arteries of vehicle-treated (Control) and Compound 1 treated mice. (B) Concentration-response curve of endothelin-1 in isolated carotid arteries of vehicle-treated (Control) and compound 3 along with compound 8 treated mice.
To test for the selectivity of the putative Endothelin-1 receptor, we applied endothelin-1 or Compound 1 in a concentration dependent manner to the […] to observe its contraction inhibition activity (FIG. 15).

[1] = Intramuscular pharmacokinetic study of bulk compound 1 and chiral isomers; format: in vivo, male Sprague Dawley (SD) rats; settings: IM 20 mg/kg
Description: In vivo pharmacokinetic study was performed in male Sprague Dawley (SD) rats (n=4). Intramuscular (IM) formulation of bulk of compound 1 as well as chiral isomer-1 and chiral isomer-2 was prepared by dissolving accurately weighed quantity of compound 1 (20 mg) in 1 mL of olive oil followed by vortexing for 2 min and sterilize through syringe filter. Blood samples were collected from the retro orbital plexus of rats under light ether anesthesia into microfuge tubes containing heparin as an anti-coagulant at 0.25, 0.5, 1, 3, 5, 7, 9, 24, 30, 48 and 72 hours post-dosing after intramuscular dose. Plasma sample was harvested by centrifuging the blood at 13000 rpm for 10 min on Sigma 1-15 K (Frankfurt, Germany) and stored frozen at −70±10° C. until bioanalysis. Each plasma sample (100 μl) was processed using protein precipitation method using 200 μl acetonitrile containing medicarpine as internal standard (I.S.) as protein precipitant, and 10 μl of the supernatant was injected for LC-MS/MS.

[2] = male, Sprague-Dawley, rat, plasma, mean ± S.D., n = 4

- Src-kinase expression (Src-kinase): marked reduction
- concentration initiating inhibition of ET-1 mediated contraction (Endothelin-1 receptor): 3 nM
- % contraction of aortic ring (Endothelin-1 receptor; 10 nM): about 35%
- % contraction of aortic ring (Endothelin-1 receptor; 30 nM): ~25%
- % contraction of aortic ring (Endothelin-1 receptor; 50 nM): about 20%
- Cl ([1]; mean ± S.D., n = 4): 3.4 ± 0.327 mL/min/kg
- Vd ([1]; mean ± S.D., n = 4): 4.017 ± 0.868 L/kg
- concentration at 0.25 h ([1]; male, Sprague-Dawley, rat, plasma, intramuscular, 0.25 h): 2910 ± 950 ng/mL
- concentration at 0.5 h ([1]; male, Sprague-Dawley, rat, plasma, intramuscular, 0.5 h): 4440 ± 460 ng/mL
- concentration at 1 h ([1]; male, Sprague-Dawley, rat, plasma, intramuscular, 1 h): 3930 ± 1200 ng/mL
- concentration at 3 h ([1]; male, Sprague-Dawley, rat, plasma, intramuscular, 3 h): 3240 ± 240 ng/mL
- concentration at 5 h ([1]; male, Sprague-Dawley, rat, plasma, intramuscular, 5 h): 2830 ± 320 ng/mL
- concentration at 7 h ([1]; male, Sprague-Dawley, rat, plasma, intramuscular, 7 h): 2390 ± 530 ng/mL
- concentration at 9 h ([1]; male, Sprague-Dawley, rat, plasma, intramuscular, 9 h): 3210 ± 810 ng/mL
- concentration at 24 h ([1]; male, Sprague-Dawley, rat, plasma, intramuscular, 24 h): 1740 ± 240 ng/mL
- concentration at 30 h ([1]; male, Sprague-Dawley, rat, plasma, intramuscular, 30 h): 1660 ± 230 ng/mL
- concentration at 48 h ([1]; male, Sprague-Dawley, rat, plasma, intramuscular, 48 h): 262 ± 120 ng/mL
- concentration at 72 h ([1]; male, Sprague-Dawley, rat, plasma, intramuscular, 72 h): 107 ± 10 ng/mL
- AUC(0-inf) [1, 2]: 98600 ± 9400 ng·h/mL
- half-life [1, 2]: 13.5 ± 1.7 h
- AUC(0-t) ([1]; male, Sprague-Dawley, rat, plasma, mean ± S.D., n = 4, read-out: AUC0-72): 96400 ± 9850 ng·h/mL
- Cmax ([1]; male, Sprague-Dawley, rat, plasma, mean ± S.D., n = 4, read-out: Cmax): 4620 ± 435 ng/mL
- MRT ([1]; male, Sprague-Dawley, rat, plasma, mean ± S.D., n = 4, read-out: MRT): 18 ± 1.57 h
- Tmax ([1]; male, Sprague-Dawley, rat, plasma, mean ± S.D., n = 4, read-out: Tmax): 0.667 ± 0.288 h
Structure (SMILES): CCOC(=O)C1N=C1CCc1ccc(OC)cc1 (racemic) [Compound 1, Ethyl 3-(4-methoxyphenethyl)-2H-azirine-2-carboxylate]
- disruption of preformed tubules (ECs): could not be able to disrupt the preformed tubules
- wound closure (HUVECs; 125 nM): 75%
- wound closure (HUVECs; 250 nM): 60%
- migration (HUVECs; 24 h): complete migration
- expression of anti-angiogenic and angiogenic proteins (endothelial cell): significantly increased the protein expression of anti-angiogenic proteins and decreased the expression of angiogenic proteins
